Measured values published in patent US5827895A, “Hexahydrolupulones useful as anticancer agents” (Regents of the University of Minnesota, priority 1996, dated 1998).
In brackets after ≈: the same amount, converted by molar mass. Entries after “also recorded” stand apart in the source; their conditions may differ. Like-named read-outs stand apart in the source and are kept apart here.

Key:
MCF-7 cells [1] = assay: Colony formation (clonogenic) assay, cytotoxic activity, 18 hour pulse exposure; assay type: cell-based; details: Homo sapiens, MCF7, 2 experiments, read-out: ID50 (the source's name)
Method: HHC was tested for cytotoxic activity using a colony formation assay, using an 18 hour pulse exposure. The purpose of the clonogenic assay is to determine the concentration of HHC at which 50% of cell growth is inhibited (i.e., IC50) when cells are exposed to the HHC for a defined amount of time (i.e., a pulse exposure to the xenobiotic).
Five ml of a mixture of 2×10^5 cells/ml (MCF-7 cells) were placed in each of 4 T-25 flasks in a media of RPMI (Gibco). The cells were incubated at 37 ° C. under 5% CO2 for a minimum of 14 hours to allow the cells to attach. The cells were pulsed for 18 hours with HHC concentrations of 0, 1.5, and 25 μM, or with DMSO.
The media was removed from the flasks (i.e., media with floating cells) and placed in 15 ml polypropylene centrifuge tubes 1-4 (summarized in Table II). […]
The cells in the original cell suspension (i.e., in the flask) were counted using trypan blue exclusion assay (described in Example II). Based on this count, the number of cells in the 50x tubes were calculated. The volume necessary to acquire approximately 5400 cells was then determined. […]
Five ml of suspension from each of tubes 13-16 was transferred to 60×15 mm tissue culture dishes (in triplicate). […] The cells were counted in those colonies which consisted of at least 50 cells. The ID50 was determined as described in Example II.

[2] = test system: MRSA (Methicillin resistant Staphylococcus A.); assay: Minimum inhibitory concentration, MRSA; assay type: cell-based, Staphylococcus aureus
MCF-7 cells [3] = assay: Fluorescence activated cell sorting (FACS), cell cycle phase; assay type: cell-based, human; details: for cell cycle phase distribution: 48 hours
Method: Fluorescence activated cell sorting (FACS) was used to determine what percentage of cells could be found in the designated cell cycle phase after 48 hours of continuous HHC exposure. There are four distinct phases in the cell cycle which lead to duplication of the cell and its genetic material. In the G0/G1 phase the cell is at rest or is performing miscellaneous biosynthetic functions. During the S phase, DNA synthesis occurs which leads to replication of the chromosomes. G2 is the pre-mitotic interval while the M phase is the time during which the cell divides.
MCF-7 cells were exposed to concentrations of 1.5 μM and 25 μM of HHC, and DMSO. DMSO had no significant effect on the cell cycle, with a profile almost identical to that of the "no drug" control.

[4] = test system: C1300 cells (mouse neuroblastoma); assay: In vitro ID50 in C1300 mouse neuroblastoma cells; assay type: cell-based; details: Neuroblastoma cell; 48 hours of continuous exposure; preliminary data
Method: C1300 cells (mouse neuroblastoma), a murine tumor cell model which is sensitive to HHC were evaluated.

Staphylococcus aureus = assay: Growth of Staphylococcus aureus in LB broth by OD600 (FIG. 1); assay type: cell-based; details: 0.5-25 μM
Method: A single colony of Staphylococcus aureus was grown in 2 ml of Luria-Bertani(LB) broth overnight at 37° C. in a bacterial shaker with vigorous shaking. 0.5 ml of the culture was transferred to 250 ml LB and allowed to grow at 37° C. until the OD600 (optical density) reading was about 0.2 (a reading of 1 OD600 indicates a cell concentration of approximately 8×10^8 cells/ml). […] No-drug and DMSO solvent were used as controls. Aliquots of the bacterial culture were taken every 2 hours to obtain the OD600 reading.

[5] = test system: VRE (Vancomycin Resistant Enterococcus faeclum); details: threshold not given
[6] = test system: DNA, RNA or protein synthesis; assay: Other studies on DNA, RNA or protein synthesis in cancer cells; assay type: cell-based
[7] = test system: Multidrug resistant Staphylococcus (except to Vancomycin); assay: Minimum inhibitory concentration, multidrug resistant Staphylococcus; assay type: cell-based
[8] = test system: VRE (Vancomycin Resistant Enterococcus faeclum); assay: microbe, parasite or virus in culture
Method: HHC was also tested for effectiveness against various bacterial isolates obtained from human subjects.

[9] = test system: VRE (Vancomycin resistant enterococcus); assay: Minimum inhibitory concentration, VRE; assay type: cell-based

In the case of `CC(C)CCC1=C(O)C(C(=O)C(C)C)=C(O)C(CCC(C)C)(CCC(C)C)C1=O` [HHC, hexahydrocolupulone], the IC50 (MCF-7 cells [1]) is reported as 1.62 µM, the MIC ([2]; MRSA) is reported as 2.5 µM (≈ 1.02 µg/mL) and the “cross resistance with other antibiotics” value ([2]; drug resistant MRSA) is reported as “HHC is not”. The “cell cycle phase distribution” value (MCF-7 cells [3]; 1.5 μM HHC) was “increase the number of cells in G0/G1 and decrease the number of cells in S phase”, the “cell cycle phase distribution” value (MCF-7 cells [3]; 25 μM HHC) was “decrease in the number of cells in G0/G1 and an increase in the number of cells in S phase” and the “effect upon G1-S phase transition” value (MCF-7 cells [3]; FACS) was “apparent effect upon the G1-S phase transition of the cell cycle; also recorded: has an effect upon the G1-S phase transition of the cell cycle”. The IC50 [4] was about 1.94 µM, the “inhibition of bacterial growth (OD600)” value (Staphylococcus aureus) was “effective inhibitor of bacterial growth” and the antibiotic sensitivity ([5]; patient A) was “S”. The antibiotic sensitivity ([5]; patient B) was “S”, the antibiotic sensitivity ([5]; patient C) was “S” and the “cytotoxic effect on cancer cells: effects upon DNA, RNA or protein synthesis” value [6] was “not due to major effects upon DNA, RNA or protein synthesis”. It also gave an MIC [7] of 2.5 µM (≈ 1.02 µg/mL), an MIC ([8]; read-out: [HHC] (MIC), patient A, VRE) of 1.01 µg/mL (≈ 2.5 µM) and an MIC ([8]; read-out: [HHC] (MIC), patient B, VRE) of 4.06 µg/mL (≈ 9.99 µM). The MIC ([8]; read-out: [HHC] (MIC), patient C, VRE) was 2.03 µg/mL (≈ 4.99 µM), the “cross resistance with vancomycin” value [9] was “not cross resistant with vancomycin” and the MIC ([9]; Enterococcus) was 5 µM (≈ 2.03 µg/mL).
